Legend:
Format in all cases: functional, cell-based
[1] = Cytotoxicity against vincristine-resistant human KB/VJ300 cells after 72 hrs by MTT assay; conditions: KB/VJ300, 72 h
[2] = Cytotoxicity against vincristine-sensitive human KB cells after 72 hrs by MTT assay
[3] = Cytotoxicity against vincristine-resistant human KB/VJ300 cells in presence of 0.12 uM vincristine after 72 hrs by MTT assay; conditions: KB/VJ300, 72 h

SMILES | IC50 [1] [nM] | IC50 [2] [nM] | IC50 [3] [nM]
C/C=C1/CN(C)[C@H]2Cc3c([nH]c4ccccc34)[C@@H](c3ccc4c5c([nH]c4c3)[C@@H]3C[C@H]4C[C@H]([C@H](C)O)[C@@H]3N(CC5)C4)C[C@@H]1[C@@H]2C(=O)OC | 4100 | 4600 | 1800
C/C=C1/CN(C)[C@H]2Cc3c([nH]c4ccccc34)[C@@H](c3ccc4c5c([nH]c4c3)[C@@H]3C[C@H]4C[C@H]([C@@H](C)O)[C@@H]3N(CC5)C4)C[C@@H]1[C@@H]2C(=O)OC | 2700 | 3300 | 1300
C/C=C1/CN(C)[C@H]2Cc3c([nH]c4ccccc34)[C@@H](c3ccc4c5c([nH]c4c3)[C@@H]3C[C@H]4C[C@H](CC)[C@@H]3N(CC5)C4)C[C@@H]1[C@@H]2C(=O)OC | 1400 | 1200 | 900
